ChEMBL document CHEMBL3885861, “Open TG-GATES”

Species: Rattus norvegicus
Assay: Open TG-GATES - Regimen: Single
Assay type: toxicity, organism-based, Sprague-Dawley
Design: regimen Single, gender Male, age 6 weeks
Details: in vivo, po, 0 mg/kg, route gavage, dose level Control; for APTT / Bas / Eos / Fbg / Hb / Ht / Lym / MCH / MCHC / MCV / Mono / Neu / PT / Plat / RBC / Ret / WBC: tissue Blood; for KIDNEY_L / KIDNEY_R / KIDNEY_TOTAL: tissue Kidney; for LIVER: tissue Liver; for A/G / ALP / ALT / AST / BUN / CRE / Ca / Cl / DBIL / GLC / IP / K / LDH / Na / PL / RALB / TBIL / TC / TG / TP / gamma-GTP: tissue Plasma

**Q.** What does the source list for `CCOc1ccc(NC(=O)CC(C)O)cc1` (configuration not stated) [BUCETIN]?
**A.** TERMINAL_BW (3 h): 208.8 g; APTT (3 h): 14.7 s; Bas (3 h): 0%; Eos (3 h): 1%; Fbg (3 h): 294.8 mg/dL; Hb (3 h): 12.7 g/dL; Ht (3 h): 38.3%; Lym (3 h): 78.2%; MCH (3 h): 21.4 pg; MCHC (3 h): 33.2%; MCV (3 h): 64.5 fL; Mono (3 h): 3.2%; Neu (3 h): 17.2%; PT (3 h): 13.6 s; Plat (3 h): 115.4 x10_4/uL; RBC (3 h): 594.2 x10_4/ul; Ret (3 h): 8.7%; WBC (3 h): 84.1 x10_2/uL; KIDNEY_L (3 h): 0.9 g; KIDNEY_R (3 h): 0.9 g; KIDNEY_TOTAL (3 h): 1.8 g; LIVER (3 h): 9.1 g; A/G (3 h): 0.9; ALP (3 h): 1389.8 IU/L; ALT (3 h): 35.8 IU/L; AST (3 h): 75 IU/L; BUN (3 h): 9.8 mg/dL; CRE (3 h): 0.2 mg/dL; Ca (3 h): 10.6 mg/dL; Cl (3 h): 105.2 meq/L; DBIL (3 h): 0.02 mg/dL; GLC (3 h): 178 mg/dL; IP (3 h): 8.6 mg/dL; K (3 h): 4.3 meq/L; LDH (3 h): 77.2 IU/L; Na (3 h): 141.8 meq/L; PL (3 h): 143.4 mg/dL; RALB (3 h): 2.5 g/dL; TBIL (3 h): 0.06 mg/dL; TC (3 h): 81.6 mg/dL; TG (3 h): 50.4 mg/dL; TP (3 h): 5.4 g/dL; gamma-GTP (3 h): 2 IU/L; TERMINAL_BW (6 h): 211.1 g; APTT (6 h): 16.7 s; Bas (6 h): 0.2%; Eos (6 h): 1%; Fbg (6 h): 303.8 mg/dL; Hb (6 h): 13.3 g/dL; Ht (6 h): 40%; Lym (6 h): 83.6%; MCH (6 h): 21.4 pg; MCHC (6 h): 33.3%; MCV (6 h): 64.4 fL; Mono (6 h): 1.8%; Neu (6 h): 13%; PT (6 h): 13.4 s; Plat (6 h): 117.3 x10_4/uL; RBC (6 h): 619.6 x10_4/ul; Ret (6 h): 8.6%; WBC (6 h): 97.2 x10_2/uL; KIDNEY_L (6 h): 0.9 g; KIDNEY_R (6 h): 0.9 g; KIDNEY_TOTAL (6 h): 1.9 g; LIVER (6 h): 8.9 g; A/G (6 h): 0.9; ALP (6 h): 1305.2 IU/L; ALT (6 h): 32.4 IU/L; AST (6 h): 66.4 IU/L; BUN (6 h): 8.8 mg/dL; CRE (6 h): 0.2 mg/dL; Ca (6 h): 10.8 mg/dL; Cl (6 h): 105.6 meq/L; DBIL (6 h): 0.016 mg/dL; GLC (6 h): 178.2 mg/dL; IP (6 h): 9.2 mg/dL; K (6 h): 4.3 meq/L; LDH (6 h): 70.4 IU/L; Na (6 h): 142.8 meq/L; PL (6 h): 143.2 mg/dL; RALB (6 h): 2.5 g/dL; TBIL (6 h): 0.058 mg/dL; TC (6 h): 77.6 mg/dL; TG (6 h): 62.8 mg/dL; TP (6 h): 5.4 g/dL; gamma-GTP (6 h): 1.4 IU/L; TERMINAL_BW (9 h): 208.6 g; APTT (9 h): 17.3 s; Bas (9 h): 0%; Eos (9 h): 1%; Fbg (9 h): 299.8 mg/dL; Hb (9 h): 13 g/dL; Ht (9 h): 39.1%; Lym (9 h): 79.8%; MCH (9 h): 21.3 pg; MCHC (9 h): 33.2%; MCV (9 h): 64.3 fL; Mono (9 h): 2.6%; Neu (9 h): 16.6%; PT (9 h): 14.3 s; Plat (9 h): 114.6 x10_4/uL; RBC (9 h): 608.6 x10_4/ul; Ret (9 h): 8.1%; WBC (9 h): 87.3 x10_2/uL; KIDNEY_L (9 h): 0.9 g; KIDNEY_R (9 h): 0.9 g; KIDNEY_TOTAL (9 h): 1.8 g; LIVER (9 h): 8.3 g; A/G (9 h): 0.9; ALP (9 h): 1557.4 IU/L; ALT (9 h): 32.8 IU/L; AST (9 h): 68.6 IU/L; BUN (9 h): 9.4 mg/dL; CRE (9 h): 0.2 mg/dL; Ca (9 h): 10.5 mg/dL; Cl (9 h): 106 meq/L; DBIL (9 h): 0.018 mg/dL; GLC (9 h): 178.6 mg/dL; IP (9 h): 9.8 mg/dL; K (9 h): 4 meq/L; LDH (9 h): 70.2 IU/L; Na (9 h): 142.2 meq/L; PL (9 h): 135 mg/dL; RALB (9 h): 2.6 g/dL; TBIL (9 h): 0.06 mg/dL; TC (9 h): 73.8 mg/dL; TG (9 h): 57.2 mg/dL; TP (9 h): 5.4 g/dL; gamma-GTP (9 h): 1.4 IU/L; TERMINAL_BW (24 h): 224 g; APTT (24 h): 18.6 s; Bas (24 h): 0.2%; Eos (24 h): 0.8%; Fbg (24 h): 290.6 mg/dL; Hb (24 h): 13.4 g/dL; Ht (24 h): 40.5%; Lym (24 h): 79%; MCH (24 h): 21.3 pg; MCHC (24 h): 33%; MCV (24 h): 64.4 fL; Mono (24 h): 2.6%; Neu (24 h): 16.6%; PT (24 h): 14.3 s; Plat (24 h): 121.1 x10_4/uL; RBC (24 h): 628.8 x10_4/ul; Ret (24 h): 7.6%; WBC (24 h): 102.9 x10_2/uL; KIDNEY_L (24 h): 1 g; KIDNEY_R (24 h): 1 g; KIDNEY_TOTAL (24 h): 2 g; LIVER (24 h): 10.4 g; A/G (24 h): 0.9; ALP (24 h): 1587.4 IU/L; ALT (24 h): 40.4 IU/L; AST (24 h): 72.2 IU/L; BUN (24 h): 14.6 mg/dL; CRE (24 h): 0.2 mg/dL; Ca (24 h): 11.1 mg/dL; Cl (24 h): 105.2 meq/L; DBIL (24 h): 0.022 mg/dL; GLC (24 h): 180.8 mg/dL; IP (24 h): 7.9 mg/dL; K (24 h): 4.1 meq/L; LDH (24 h): 74.6 IU/L; Na (24 h): 143.6 meq/L; PL (24 h): 148.2 mg/dL; RALB (24 h): 2.6 g/dL; TBIL (24 h): 0.05 mg/dL; TC (24 h): 76.2 mg/dL; TG (24 h): 104.2 mg/dL; TP (24 h): 5.6 g/dL; gamma-GTP (24 h): 1.2 IU/L
